Consider 2 compounds from PMC7555427, “Discovery of Icotinib-1,2,3-Triazole Derivatives as IDO1 Inhibitors” (Frontiers in Pharmacology, 2020).

SMILES strings stand for the structures.

For test [1], the system named is IDO1. The arrangement: method as in Nelp et al., 2018. The settings on record: previously reported; ref Nelp et al., 2018; cited from earlier work.
Test [2] concerns Human renal epithelial cell (293T). Description: Cytotoxicity assay, Cell Counting Kit-8 (CCK8), 72 h. It counts as cell-based. The following applies: HEK-293T, 293T cells, CCK-8, 72 h. The procedure:
Cytotoxity of the chosen compounds was evaluated by the Cell Counting Kit-8 (CCK8, DOJINDO, Japan) assay. The cells were seeded at a density of 2,000 cells per well into 96-well microplate in 100 μl of growth medium. Cells were incubated at 37°C and 5% CO2 overnight. The next day, 100 μl per well of diluted inhibitor in growth medium was added with the final concentration from 0.1nM to 100 μM. The cells were treated with DMSO as control. A series of dilutions were made in 0.1% DMSO in assay medium so that the final concentration of DMSO was 0.1% in all the treatments. Cells were incubated at 37°C and 5% CO2 for 72 h. Then, 10 μl of CCK8 was added to each well. The plates were incubated at 37°C for 2 h, and the plates were recorded by measuring the absorbance at 450 nm with the reference wavelength of 630 nm using an EnVisionMultilabel Reader (PerkinElmer). The IC50 values were calculated and determined by the concentration causing a half-maximal percent activity. All assays were conducted with three parallel samples and three repetitions.
Next, several compounds with submicromolar level of IDO1 inhibitory activities were chosen for further study. Human renal epithelial cell (293T) was chosen for CCK-8 assay to evaluation the bioactivity of these compounds.
Background: Tetrazolium dyes change colour on reduction, which living cells bring about.

The target in test [3] is T1, IDO1 (Homo sapiens, UniProt P14902).
T1 construct: host or cells: HeLa cells, IDO1 induced with 100 ng/ml human IFN-γ
Description: Hela cell-based IDO1 functional assay (kynurenine readout, IFN-γ induced). The following applies: Hela cells, 100 ng/ml human IFN-γ, 18 h; Table 1 and text. As for the experimental part: To perform the Hela cell based IDO1 assay, Hela cells were seeded at 50,000 cells per well into 96-well microplate in 100 μl of DMEM 10% fetal bovine serum 1% Penicillin-Streptomycin. Cells were incubated at 37°C and 5% CO2 overnight.
The next day 100 μl per well of diluted inhibitor in growth medium was added at a final concentration of 100 ng/ml human IFN-γ. Cells were incubated at 37°C in a CO2 incubator for 18 h. The next day 140 μl of medium was moved into a new 96-well plate and 20 μl of 3.05 N trichloroacetic acid (TCA) was added. The plate was incubated at 50°C for 30 min to hydrolyze N-formylkynurenine. The plate was then centrifuged at 2,500 rpm for 10 min to remove sediments. 100 μl of supernatant per well was transferred to another 96-well plate and mixed with 100 μl of 2% (w/v) 4-(Dimethylamino)benzaldehyde in acetic acid. The plate was incubated at room temperature for 10 min, the yellow color derived from kynurenine was recorded by measuring absorbance at 480 nm using a microplate reader (PerkinElmer, USA).
To investigate the IDO1 inhibition activities of the synthesized derivatives, all the new compounds and icotinib were screened via Hela cell-based functional assay using methods described in the literature ([Yue et al., 2009]; [Malachowski et al., 2016]; [Qian et al., 2016]).

Broadly, the IC50 is the concentration that inhibits the measured activity by half. Regarding `C[C@@H](C(=O)Nc1ccc(Cl)cc1)C1CCC(c2ccnc3ccc(F)cc23)CC1` (stereo partly drawn) [BMS-986205], in test [1], the IC50 is […].

T1 sequence (P14902 whole entry): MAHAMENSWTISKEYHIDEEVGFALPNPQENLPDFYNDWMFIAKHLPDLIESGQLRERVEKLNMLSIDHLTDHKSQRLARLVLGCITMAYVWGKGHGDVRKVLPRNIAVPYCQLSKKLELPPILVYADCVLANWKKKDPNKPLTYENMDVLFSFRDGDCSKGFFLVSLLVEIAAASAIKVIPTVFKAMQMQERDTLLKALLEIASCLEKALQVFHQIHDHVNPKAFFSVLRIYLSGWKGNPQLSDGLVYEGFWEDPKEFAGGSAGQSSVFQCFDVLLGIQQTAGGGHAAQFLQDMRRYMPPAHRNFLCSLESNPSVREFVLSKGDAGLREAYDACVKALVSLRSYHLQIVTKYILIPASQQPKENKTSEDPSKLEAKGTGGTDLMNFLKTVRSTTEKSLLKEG

As for `Fc1ccc(CCn2cc(-c3cccc(Nc4ncnc5cc6c(cc45)OCCOCCOCCO6)c3)nn2)cc1` [a22, (3-{1-[2-(4-Fluoro-phenyl)-ethyl]-1H-[1,2,3]triazol-4-yl}-phenyl)-(7,8,10,11,13,14-hexahydro-6,9,12,15-tetraoxa-1,3-diaza-cyclododeca[b]naphthalen-4-yl)-amine], the values for the IC50 in test [2] and in test [3] were 2.6 ± 0.17 µM and 0.81 ± 0.35 µM, respectively.
